Assay results published in patent US9408839B2, “Antipsychotic treatment based on DRD2 or ANKK1 SNP genotype” (Vanda Pharmaceuticals, Inc., priority 2009, dated 2016).

Legend:
schizophrenic patients = conditions: cited from earlier work; for time to respond to antipsychotics, -141C Del allele carriers versus -141C Ins allele carriers: rs1799732 SNP; for time to respond to antipsychotics, -141C Del allele carriers versus -141C Ins allele carriers / improvement on treatment, C/C genotype versus non-C/C genotype: schizophrenic patients; for improvement on treatment, C/C genotype versus non-C/C genotype: rs6275 SNP
[1] = test system: patients with an acute exacerbation of schizophrenia; assay: Phase III clinical trial of iloperidone, change from baseline in PANSS-T by DRD2/ANKK1 SNP genotype; assay type: in vivo, human; conditions: iloperidone 24 mg/d; for PANSS-T mean change: day 14, white patients; for mean change in PANSS-T: day 14, white subpopulation
Experimental: The clinical trial evaluated the efficacy of iloperidone in treating patients with diagnosed schizophrenia. The study, its results, and the inferences drawn therefrom are described below.
A four-week, randomized, double-blind, placebo- and ziprasidone-controlled, multicenter inpatient phase III clinical trial of iloperidone was conducted, including 409 individuals, to assess the efficacy of iloperidone, as measured by changes in the Positive and Negative Syndrome Scale Total (PANSS-T).
Patients, all diagnosed with an acute exacerbation of schizophrenia, were randomly assigned to one of three groups. A first group (n=218) received 24 mg/d (12 mg bid) of iloperidone, a second group (n=103) received 160 mg/d (80 mg bid) ziprasidone, and a third group (n=105) received a placebo. Efficacy was measured by a change from baseline in PANSS-T score.

Q: Which “time to respond to antipsychotics, -141C Del allele carriers versus -141C Ins allele carriers” value (schizophrenic patients) does the source give for CN(C)CCCN1c2ccccc2Sc2ccc(Cl)cc21 [chlorpromazine] here?
A: Its value is “significantly longer time to respond”.

Q: Which “improvement on treatment, C/C genotype versus non-C/C genotype” value (schizophrenic patients) does the source give for O=C(CCCN1CCC(O)(c2ccc(Cl)cc2)CC1)c1ccc(F)cc1 [haloperidol] here?
A: The value was “greater improvement”.

Q: What does the source list for COc1cc(C(C)=O)ccc1OCCCN1CCC(c2noc3cc(F)ccc23)CC1 [iloperidone, 1-[4-[3-[4-(6-flouro-1,2-benzisoxazol-3-yl)-1-piperidinyl]propoxy]-3-methoxyphenyl]ethanone]?
A: PANSS-T mean change ([1]; rs2283265 G/T genotype): −2.4 (±3.0); PANSS-T mean change ([1]; rs2283265 non-G/T genotype): −11.8 (±2.0); mean change in PANSS-T ([1]; rs1800497 (Taq1A) A1/A2 patients): −2.1 (±2.7); mean change in PANSS-T ([1]; rs1800497 (Taq1A) non-A1/A2 patients): −12.7 (±2.1)

Q: For Cc1nc2n(c(=O)c1CCN1CCC(c3noc4cc(F)ccc34)CC1)CCCC2 [risperidol], which “improvement on treatment, C/C genotype versus non-C/C genotype” value (schizophrenic patients) is on record?
A: The value was “greater improvement”.

Q: Which “time to respond to antipsychotics, -141C Del allele carriers versus -141C Ins allele carriers” value (schizophrenic patients) does the source give for Cc1nc2n(c(=O)c1CCN1CCC(c3noc4cc(F)ccc34)CC1)CCCC2 [risperidone] here?
A: The value was “significantly longer time to respond”.

Q: What about the “response to treatment, -241A allele carriers versus -241G allele carriers” value (schizophrenic patients; rs1799978 SNP, some patients) of the same molecule?
A: Its value is “greater response”.
